The values below come from PubChem BioAssay AID588667 (The Scripps Research Institute Molecular Screening Center, 2011).

SMILES strings stand for the structures.

Broadly, the inhibition is how much of the control response was suppressed.

This assay deals with Epidermal growth factor receptor (Homo sapiens) (UniProt P00533). Briefly: decrease of EGFR abundance in colorectal cells – SW620 cells, chemiluminescent western blot, powder samples, counter-screen for KLF5 inhibitor project, late-stage follow-up (AID 588667). The note with it: 24 h, at 10 µM; for inhibition: stronger effect = higher value; for signed fold change of EGFR band vs DMSO (negative = fold decrease; more negative = more active): measured here: EGFR band fold change vs DMSO. On the technique in general: Immunoblotting shows a protein as a band on a membrane.
Epidermal growth factor receptor (Homo sapiens), sequence (P00533 whole entry, looked up): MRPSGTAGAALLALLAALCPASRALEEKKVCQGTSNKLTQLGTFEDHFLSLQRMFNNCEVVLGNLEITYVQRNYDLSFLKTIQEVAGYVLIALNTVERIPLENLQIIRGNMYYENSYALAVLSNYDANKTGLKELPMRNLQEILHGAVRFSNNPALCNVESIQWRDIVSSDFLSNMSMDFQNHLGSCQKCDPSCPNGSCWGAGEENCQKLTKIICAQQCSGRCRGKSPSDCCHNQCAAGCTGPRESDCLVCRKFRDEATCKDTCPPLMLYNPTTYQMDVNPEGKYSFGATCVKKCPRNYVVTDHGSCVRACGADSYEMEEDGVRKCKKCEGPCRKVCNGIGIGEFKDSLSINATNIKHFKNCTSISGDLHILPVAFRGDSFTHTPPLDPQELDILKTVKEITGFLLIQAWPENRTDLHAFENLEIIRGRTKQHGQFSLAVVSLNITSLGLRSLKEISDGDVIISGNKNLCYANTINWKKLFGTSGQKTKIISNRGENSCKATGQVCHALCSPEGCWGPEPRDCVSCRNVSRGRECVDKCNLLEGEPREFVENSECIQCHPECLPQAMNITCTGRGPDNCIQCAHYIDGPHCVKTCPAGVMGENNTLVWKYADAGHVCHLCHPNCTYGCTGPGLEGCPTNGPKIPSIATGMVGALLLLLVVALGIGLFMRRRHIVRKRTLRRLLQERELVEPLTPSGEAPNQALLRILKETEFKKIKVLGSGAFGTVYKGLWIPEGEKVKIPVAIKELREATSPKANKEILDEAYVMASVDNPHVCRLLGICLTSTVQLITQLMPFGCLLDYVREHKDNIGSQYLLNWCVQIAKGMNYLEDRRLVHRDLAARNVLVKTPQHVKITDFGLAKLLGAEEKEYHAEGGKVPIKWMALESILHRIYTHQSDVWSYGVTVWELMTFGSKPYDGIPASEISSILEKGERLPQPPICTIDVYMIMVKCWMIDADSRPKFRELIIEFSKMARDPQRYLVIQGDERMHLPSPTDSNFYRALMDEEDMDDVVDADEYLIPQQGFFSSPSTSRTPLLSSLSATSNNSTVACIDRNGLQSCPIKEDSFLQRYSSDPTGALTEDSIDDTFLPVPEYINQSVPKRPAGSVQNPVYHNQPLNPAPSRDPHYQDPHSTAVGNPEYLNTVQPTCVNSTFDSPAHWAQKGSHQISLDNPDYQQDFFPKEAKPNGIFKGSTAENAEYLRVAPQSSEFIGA

In the case of `CN(C(=O)CNC(=O)/C=C/c1cccc(Cl)c1)C1CCS(=O)(=O)C1` (stereo unspecified), the inhibition is 31.7% and the signed fold change of EGFR band vs DMSO (negative = fold decrease; more negative = more active) is -1.46.
Turning to `CN(C(=O)COC(=O)/C=C/c1cccc([N+](=O)[O-])c1)C1CCS(=O)(=O)C1` (stereo unspecified), the inhibition is 53.3% and the signed fold change of EGFR band vs DMSO (negative = fold decrease; more negative = more active) is -2.14.
Turning to `CN(C(=O)CNC(=O)/C=C/c1cccc(Cl)c1)C1CCS(=O)(=O)CC1`, the inhibition is 87.1% and the signed fold change of EGFR band vs DMSO (negative = fold decrease; more negative = more active) was -7.78.
